Values after ≈ are worked out from the molar mass of the structure shown.
Key:
[1] = Moisture / water content of dried oligosaccharide powder (Karl Fischer titration, infrared moisture analyzer); assay type: physicochemical; conditions: powder from ATFD system B; heated surface 64-70° C., 20-40 mbar, rotor 800-850 rpm; about 20% dry weight solution in reverse osmosis water
Description: Sartorius MA150 Infrared Moisture Analyzer is used to determine the dry matter content of the oligosaccharides. 0.5 g of oligosaccharide is weighed on an analytical balance and is dried in the infrared moisture analyzer until the weight of the sample is stable. The mass of the dried sample divided by the mass of the sample before drying gives the dry matter content (in percent) of the oligosaccharides or sample including oligosaccharides. In a similar way a liquid sample is weighed, however, the amount of liquid weighed is adapted to the expected amount of dry matter in the liquid, so the mass of the dry matter is properly measurable on an analytical balance.
A moisture analyzer measures the dry matter, but not the water content. Karl Fisher titration is used to determine the amount of water present in a powder, ingredient of food. […]
The moisture content (MC) of sample was calculated using the following equation: […]
For testing the principle of agitated thin film drying on oligosaccharides according to the disclosure, a model system (i.e., system A as described throughout the Examples) is used wherein the model directly translates to large scale manufacturing. […] The ATFD chamber was equipped with a Liebig condenser and a dropping funnel to condense and quantify the vapor release. […]
Solutions (such as syrups) containing an oligosaccharide or a mixture of oligosaccharides were preheated to a temperature between 3° and 100° C. and pumped to the system with a peristaltic pump with a flow ranging from 0.1 to 1 kg/h. […] The amount of condensed water was measured and used to obtain the evaporation rate. The specific evaporation rate was calculated by dividing the evaporation rate by the used heat exchange area.
A pilot ATFD system (i.e., system B as described throughout the Examples) was used to produce larger amounts of dried oligosaccharide. […] The amount of condensed water was measured and used to obtain the evaporation rate. The specific evaporation rate was calculated by dividing the evaporation rate by the used heat exchange area. […]

[2] = Oligosaccharide analysis of ATFD powder: breakdown during the drying run; assay type: physicochemical; conditions: ATFD system B; 1-hour run (2′FL) or 2-hour run (LNnT, 6′SL); heated surface 64-70° C., 20-40 mbar
Protocol: Neutral oligosaccharides were analyzed on a Waters™ Acquity H-class UPLC with Evaporative Light Scattering Detector (ELSD) or a Refractive Index (RI) detection. A volume of 0.7 μL sample was injected on a Waters™ Acquity UPLC BEH Amide column (2.1×100 mm; 130 Å; 1.7 μm) column with an Acquity UPLC BEH Amide VanGuard column, 130 Å, 2.1×5 mm. The column temperature was 50° C. The mobile phase consisted of a ¼ water and ¾ acetonitrile solution to which 0.2% triethylamine was added. The method was isocratic with a flow of 0.130 mL/min. […] The temperature of the RI detector was set at 35° C.
(§1) Sialylated oligosaccharides were analyzed on a Waters™ Acquity H-class UPLC with Refractive Index (RI) detection. A volume of 0.5 μL sample was injected on a Waters™ Acquity UPLC BEH Amide column (2.1×100 mm; 130 Å; 1.7 μm). The column temperature was 50° C. The mobile phase consisted of a mixture of 70% acetonitrile, 26% ammonium acetate buffer (150 mM) and 4% methanol to which 0.05% pyrrolidine was added. The method was isocratic with a flow of 0.150 mL/min. The temperature of the RI detector was set at 35° C.
as §1, with “Both neutral and sialylated sugars” for “Sialylated oligosaccharides”, “72% acetonitrile and 28%” for “70% acetonitrile, 26%”, “(100” for “(150”, “mM)” for “mM) and 4% methanol”, “0.1% triethylamine” for “0.05% pyrrolidine”, “0.260” for “0.150”
A pilot ATFD system (i.e., system B as described throughout the Examples) was used to produce larger amounts of dried oligosaccharide. The inner diameter and length of the drying chamber is 15.1 cm and 41.7 cm, respectively. The heat exchanger area is 0.2 m^2. […] The amount of condensed water was measured and used to obtain the evaporation rate. The specific evaporation rate was calculated by dividing the evaporation rate by the used heat exchange area.

[3] = Bulk density of powder (ASTM D1895 method A, i.e., ISO Method R 60); assay type: physicochemical; conditions: for bulk density of the powder obtained by ATFD, average during the run: ATFD system B powder; for bulk density of the spray dried powder: spray dried powder (comparison)
Description: As used herein, the term “bulk density” is the weight of the particles of a particulate solid (such as a powder) in a given volume, and is expressed in grams per liter (g/L). The total volume that the particles of a particulate solid occupy depends on the size of the particles themselves and the volume of the spaces between the particles. Entrapped air between and inside the particles also can affect the bulk density. Thus, a particulate solid consisting of large, porous particles with large inter-particulate spaces will have a lower bulk density than a particulate solid consisting of small, non-porous particles that compact closely together. Bulk density can be expressed in two forms: “loose bulk density” and “tapped bulk density.” Loose bulk density (also known in the art as “freely settled” or “poured” bulk density) is the weight of a particulate solid divided by its volume where the particulate solid has been allowed to settle into that volume of its own accord (e.g., a powder poured into a container).
Techniques for measuring bulk density are well known in the art. Loose bulk density may be measured using a measuring cylinder and weighing scales: the particulate solid is poured into the measuring cylinder and the weight and volume of the particulate solid; weight divided by volume gives the loose bulk density. Tapped bulk density can be measured using the same technique, with the addition of tapping the measuring cylinder a set number of times before measuring weight and volume. Automation of tapping ensures the number, timing and pressure of individual taps is accurate and consistent. Automatic tapping devices are readily available, an example being the Jolting Stampfvolumeter (STAV 203) from J. Englesmann A G.
Lacto-N-neotetraose (LNnT) was recombinantly produced in E. coli according to Example 2, followed by a cell lysis treatment and/or broth clarification according to Example 4. The clarified broth was finally spray dried as described in Example 1 to obtain a powder comprising LNnT (74%), pLNnH (13%; para-lacto-N-neohexaose) and LNT-II (3%; lacto-N-triose II). A solution (16.1 kg) of LNnT was then prepared in reverse osmosis water such that the dry weight is 19.60%. The LNnT solution was then fed into the ATFD system B (it is referred to Example 1) at 7.7 kg/h. […] Every 5 minutes, a sample of the obtained powder was analyzed according to Example 1 (dry matter content, moisture content, oligosaccharide analysis, color).
6′-sialyllactse (6′SL) was recombinantly produced in E. coli according to Example 2, followed by a cell lysis treatment and/or broth clarification according to Example 4. […] Every 5 minutes, a sample of the obtained powder was analyzed according to Example 1 (dry matter content, moisture content, oligosaccharide analysis, color).

[4] = Color of powder obtained by ATFD; assay type: physicochemical; conditions: ATFD system B; from 15 min (2′FL), 30 min (LNnT) or 20 min (6′SL) and at each subsequent time-point
Description: In a first aspect, provided is a method for drying an oligosaccharide and/or for obtaining an oligosaccharide in the form of a solid (preferably a powder), the method comprising the steps of: • i) providing a solution comprising an oligosaccharide; and • ii) applying the solution to an agitated thin film dryer, • wherein the oligosaccharide has a degree of polymerization (DP) that is less than 16, preferably less than 15, even more preferably less than 14, even more preferably less than 13, even more preferably less than 12, even more preferably less than 11, even more preferably less than 10, even more preferably less than 9, even more preferably less than 8, most preferably less than 7. […] The “ICUMSA” refers to the International Commission for Uniform methods of Sugar Analysis, i.e., the unit used for the measurement of sugar color.
A pilot ATFD system (i.e., system B as described throughout the Examples) was used to produce larger amounts of dried oligosaccharide. The inner diameter and length of the drying chamber is 15.1 cm and 41.7 cm, respectively. The heat exchanger area is 0.2 m^2. The heat exchanger area can be heated at 50-120° C. using steam. The distance between the rotor and wall is 0.9 mm. The blades can rotate at 200-2200 rpm. The condenser was operated with cooling water of 5-6° C. The amount of condensed water was measured and used to obtain the evaporation rate. The specific evaporation rate was calculated by dividing the evaporation rate by the used heat exchange area.

[5] = 25° C.; literature values (WO2018/164937, EFSA Journal); cited from earlier work

Row | Compound | mean moisture content [1] | oligosaccharide broken down at the end of the run [2] | bulk density of the powder obtained by ATFD, average during the run [3] [g/L] | bulk density of the spray dried powder [3] [g/L] | color of the obtained powder [4] | solubility in an aqueous solution [5]
1 | CC(=O)N[C@H]1[C@H]([C@H](O)[C@H](O)CO)O[C@@](OC[C@H]2O[C@@H](O[C@H]3[C@H](O)[C@@H](O)[C@H](O)O[C@@H]3CO)[C@H](O)[C@@H](O)[C@H]2O)(C(=O)O)C[C@@H]1O [6′-sialyllactose] | 6.2-6.8% | less than 10% | 521 ± 10 | 321 | white to off-white | at least 500 g/L
2 | CC(=O)N[C@H]1[C@H]([C@H](O)[C@H](O)CO)O[C@@](O[C@H]2[C@@H](O)[C@@H](CO)O[C@@H](O[C@H]3[C@H](O)[C@@H](O)C(O)O[C@@H]3CO)[C@@H]2O)(C(=O)O)C[C@@H]1O (stereo partly drawn) [3′-sialyllactose] | – | – | – | – | – | 500 mg/mL (≈ 789 mM)
3 | CC(=O)N[C@H]1[C@H](O[C@H]2[C@@H](O)[C@@H](CO)O[C@@H](O[C@H]3[C@H](O)[C@@H](O)C(O)O[C@@H]3CO)[C@@H]2O)O[C@H](CO)[C@@H](O)[C@@H]1O[C@@H]1O[C@H](CO)[C@H](O)[C@H](O)[C@H]1O (stereo partly drawn) [Lacto-N-tetraose] | – | – | – | – | – | 400 mg/mL (≈ 565 mM)

More lines, main results first:

Row | mean moisture content [1] | oligosaccharide broken down at the end of the run [2] | bulk density of the powder obtained by ATFD, average during the run [3] [g/L] | bulk density of the spray dried powder [3] [g/L] | color of the obtained powder [4] | Compound | solubility in an aqueous solution [5]
4 | 5.5% | less than 10% | 509 ± 16 | 368 | white to off-white | CC(=O)N[C@H]1[C@H](O[C@H]2[C@@H](O)[C@@H](CO)O[C@@H](O[C@H]3[C@H](O)[C@@H](O)C(O)O[C@@H]3CO)[C@@H]2O)O[C@H](CO)[C@@H](O[C@@H]2O[C@H](CO)[C@H](O)[C@H](O)[C@H]2O)[C@@H]1O (mixture of isomers) [Lacto-N-neotetraose] | 500 mg/mL
5 | 2.47% | less than 4% | – | – | white to off-white | 2′-fucosyllactose | 1410 mg/mL
